Experimental data as given in the supplement of paper PMC10307832.

Experiments:
Assay in all cases: relative viability (nuclei count vs DMSO), 5 days (fraction); higher = more cells survive
NCI-H1648 = test system: NCI-H1648
Procedure, shortened: (§1)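 Lung cancer cell lines in 1536-well plates were dosed by pin tool the day after seeding, either with one drug alone or with a fixed anchor-drug dose plus five library-drug doses (not always all listed) in √10 steps. After 5 days, cells were fixed and their nuclei stained in one step (final 0.05% Triton X-100, 1% formaldehyde, 1 ug/ml Hoechst), then counted on 4× images. Relative viability is the nuclei count in treated wells divided by that in vehicle wells. Values are medians of duplicate plates.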

EKVX = test system: EKVX
Procedure, shortened: as §1

NCI-H1666 = test system: NCI-H1666
Procedure, shortened: as §1

LC-2-ad = test system: LC-2-ad
Procedure, shortened: as §1

ChaGo-K-1 = test system: ChaGo-K-1
Procedure, shortened: as §1

Calu-6 = test system: Calu-6
Procedure, shortened: as §1

EBC-1 = test system: EBC-1
Procedure, shortened: as §1

A549 = test system: A549
Procedure, shortened: as §1

NCI-H1703 = test system: NCI-H1703
Procedure, shortened: as §1

NCI-H1299 = test system: NCI-H1299
Procedure, shortened: as §1

IA-LM = test system: IA-LM
Procedure, shortened: as §1

CCNC(=O)c1noc(-c2cc(C(C)C)c(O)cc2O)c1-c1ccc(CN2CCOCC2)cc1 [Luminespib] + CC(=O)Nc1cccc(-n2c(=O)n(C3CC3)c(=O)c3c(Nc4ccc(I)cc4F)n(C)c(=O)c(C)c32)c1 [Trametinib] (partner 0.02 µM)
relative viability (NCI-H1648; first compound 0.002 µM): 0.395 | relative viability (NCI-H1648; first compound 0.006325 µM): 0.492 | relative viability (NCI-H1648; first compound 0.02 µM): 0.513 | relative viability (NCI-H1648; first compound 0.06325 µM): 0.407 | relative viability (NCI-H1648; first compound 0.2 µM): 0.278 | relative viability (EKVX; first compound 0.002 µM): 0.391 | relative viability (EKVX; first compound 0.006325 µM): 0.326 | relative viability (EKVX; first compound 0.02 µM): 0.219 | relative viability (EKVX; first compound 0.06325 µM): 0.165 | relative viability (EKVX; first compound 0.2 µM): 0.122 | relative viability (NCI-H1666; first compound 0.002 µM): 0.845 | relative viability (NCI-H1666; first compound 0.006325 µM): 0.869 | relative viability (NCI-H1666; first compound 0.02 µM): 0.942 | relative viability (NCI-H1666; first compound 0.06325 µM): 0.818 | relative viability (NCI-H1666; first compound 0.2 µM): 0.982 | relative viability (LC-2-ad; first compound 0.002 µM): 0.926 | relative viability (LC-2-ad; first compound 0.006325 µM): 0.903 | relative viability (LC-2-ad; first compound 0.02 µM): 1.06 | relative viability (LC-2-ad; first compound 0.06325 µM): 0.889 | relative viability (LC-2-ad; first compound 0.2 µM): 0.647 | relative viability (ChaGo-K-1; first compound 0.002 µM): 0.831 | relative viability (ChaGo-K-1; first compound 0.006325 µM): 0.873 | relative viability (ChaGo-K-1; first compound 0.02 µM): 0.884 | relative viability (ChaGo-K-1; first compound 0.06325 µM): 0.861 | relative viability (ChaGo-K-1; first compound 0.2 µM): 0.892

CN1CCN(CCOc2cc(OC3CCOCC3)c3c(Nc4c(Cl)ccc5c4OCO5)ncnc3c2)CC1 [Saracatinib] + CC(=O)Nc1cccc(-n2c(=O)n(C3CC3)c(=O)c3c(Nc4ccc(I)cc4F)n(C)c(=O)c(C)c32)c1 [Trametinib] (partner 0.02 µM)
relative viability (NCI-H1648; first compound 0.02 µM): 0.436 | relative viability (NCI-H1648; first compound 0.2 µM): 0.47 | relative viability (NCI-H1648; first compound 0.6325 µM): 0.564 | relative viability (NCI-H1648; first compound 2 µM): 0.357 | relative viability (EKVX; first compound 0.02 µM): 0.274 | relative viability (EKVX; first compound 0.6325 µM): 0.37 | relative viability (EKVX; first compound 2 µM): 0.163 | relative viability (NCI-H1666; first compound 0.02 µM): 0.829 | relative viability (NCI-H1666; first compound 0.2 µM): 0.939 | relative viability (NCI-H1666; first compound 0.6325 µM): 1.06 | relative viability (NCI-H1666; first compound 2 µM): 0.823 | relative viability (LC-2-ad; first compound 0.02 µM): 0.9 | relative viability (LC-2-ad; first compound 0.2 µM): 0.858 | relative viability (LC-2-ad; first compound 0.6325 µM): 0.993 | relative viability (LC-2-ad; first compound 2 µM): 0.866 | relative viability (ChaGo-K-1; first compound 0.02 µM): 0.935 | relative viability (ChaGo-K-1; first compound 0.2 µM): 0.566 | relative viability (ChaGo-K-1; first compound 0.6325 µM): 0.906 | relative viability (ChaGo-K-1; first compound 2 µM): 0.84

CN1CCN(CCOc2cc(OC3CCOCC3)c3c(Nc4c(Cl)ccc5c4OCO5)ncnc3c2)CC1 [Saracatinib] + CS(=O)(=O)N1CCN(Cc2cc3nc(-c4cccc5[nH]ncc45)nc(N4CCOCC4)c3s2)CC1 [Pictilisib] (partner 1 µM)
relative viability (Calu-6; first compound 0.02 µM): 0.858 | relative viability (Calu-6; first compound 0.2 µM): 0.645 | relative viability (Calu-6; first compound 0.6325 µM): 0.702 | relative viability (Calu-6; first compound 2 µM): 0.613 | relative viability (EBC-1; first compound 0.02 µM): 0.445 | relative viability (EBC-1; first compound 0.2 µM): 0.397 | relative viability (EBC-1; first compound 0.6325 µM): 0.387 | relative viability (EBC-1; first compound 2 µM): 0.429 | relative viability (EKVX; first compound 0.02 µM): 0.417 | relative viability (EKVX; first compound 0.2 µM): 0.409 | relative viability (EKVX; first compound 0.6325 µM): 0.366 | relative viability (EKVX; first compound 2 µM): 0.175 | relative viability (A549; first compound 0.02 µM): 0.491 | relative viability (A549; first compound 0.2 µM): 0.412 | relative viability (A549; first compound 0.6325 µM): 0.515 | relative viability (A549; first compound 2 µM): 0.399 | relative viability (NCI-H1666; first compound 0.02 µM): 0.493 | relative viability (NCI-H1666; first compound 0.2 µM): 0.413 | relative viability (NCI-H1666; first compound 0.6325 µM): 0.563 | relative viability (NCI-H1666; first compound 2 µM): 0.469 | relative viability (LC-2-ad; first compound 0.02 µM): 0.578 | relative viability (LC-2-ad; first compound 0.6325 µM): 0.443 | relative viability (LC-2-ad; first compound 2 µM): 0.362 | relative viability (ChaGo-K-1; first compound 0.02 µM): 0.784 | relative viability (ChaGo-K-1; first compound 0.2 µM): 0.521 | relative viability (ChaGo-K-1; first compound 0.6325 µM): 0.903 | relative viability (ChaGo-K-1; first compound 2 µM): 0.379 | relative viability (NCI-H1703; first compound 0.02 µM): 0.228 | relative viability (NCI-H1703; first compound 0.2 µM): 0.242 | relative viability (NCI-H1703; first compound 0.6325 µM): 0.181 | relative viability (NCI-H1703; first compound 2 µM): 0.203 | relative viability (NCI-H1299; first compound 0.02 µM): 0.69 | relative viability (NCI-H1299; first compound 0.2 µM): 0.528 | relative viability (NCI-H1299; first compound 0.6325 µM): 0.387 | relative viability (NCI-H1299; first compound 2 µM): 0.256 | relative viability (IA-LM; first compound 0.02 µM): 0.33 | relative viability (IA-LM; first compound 0.2 µM): 0.445 | relative viability (IA-LM; first compound 0.6325 µM): 0.515 | relative viability (IA-LM; first compound 2 µM): 0.37

CN1CCN(CCOc2cc(OC3CCOCC3)c3c(Nc4c(Cl)ccc5c4OCO5)ncnc3c2)CC1 [Saracatinib] + C[C@@H](Oc1cc(-c2cnn(C3CCNCC3)c2)cnc1N)c1c(Cl)ccc(F)c1Cl [Crizotinib] (partner 1 µM)
relative viability (Calu-6; first compound 0.02 µM): 0.769 | relative viability (Calu-6; first compound 0.2 µM): 0.594 | relative viability (Calu-6; first compound 0.6325 µM): 0.662 | relative viability (Calu-6; first compound 2 µM): 0.526 | relative viability (EBC-1; first compound 0.02 µM): 0.174 | relative viability (EBC-1; first compound 0.2 µM): 0.198 | relative viability (EBC-1; first compound 0.6325 µM): 0.188 | relative viability (EBC-1; first compound 2 µM): 0.181 | relative viability (EKVX; first compound 0.02 µM): 0.927 | relative viability (EKVX; first compound 0.2 µM): 0.865 | relative viability (EKVX; first compound 0.6325 µM): 0.596 | relative viability (EKVX; first compound 2 µM): 0.302 | relative viability (A549; first compound 0.02 µM): 0.74 | relative viability (A549; first compound 0.2 µM): 0.738 | relative viability (A549; first compound 0.6325 µM): 0.649 | relative viability (A549; first compound 2 µM): 0.549 | relative viability (NCI-H1666; first compound 0.02 µM): 1.04 | relative viability (NCI-H1666; first compound 0.2 µM): 0.965 | relative viability (NCI-H1666; first compound 0.6325 µM): 1.18 | relative viability (NCI-H1666; first compound 2 µM): 0.926 | relative viability (LC-2-ad; first compound 0.02 µM): 0.434 | relative viability (LC-2-ad; first compound 0.2 µM): 0.41 | relative viability (LC-2-ad; first compound 0.6325 µM): 0.513 | relative viability (LC-2-ad; first compound 2 µM): 0.371 | relative viability (ChaGo-K-1; first compound 0.02 µM): 1.08 | relative viability (ChaGo-K-1; first compound 0.2 µM): 0.906 | relative viability (ChaGo-K-1; first compound 0.6325 µM): 1.1 | relative viability (ChaGo-K-1; first compound 2 µM): 0.809 | relative viability (NCI-H1703; first compound 0.02 µM): 0.553 | relative viability (NCI-H1703; first compound 0.2 µM): 0.633 | relative viability (NCI-H1703; first compound 0.6325 µM): 0.23 | relative viability (NCI-H1703; first compound 2 µM): 0.0951 | relative viability (NCI-H1299; first compound 0.02 µM): 0.942 | relative viability (NCI-H1299; first compound 0.2 µM): 0.948 | relative viability (NCI-H1299; first compound 0.6325 µM): 0.985 | relative viability (NCI-H1299; first compound 2 µM): 0.781 | relative viability (IA-LM; first compound 0.02 µM): 1.07 | relative viability (IA-LM; first compound 0.2 µM): 1.08 | relative viability (IA-LM; first compound 0.6325 µM): 1.24 | relative viability (IA-LM; first compound 2 µM): 0.738
